Key:
iNKT cells = settings: repeated stimulation; cited from earlier work
plate bound mCD1d = biological target: T1, plate bound mCD1d (Mus musculus, UniProt P11609); assay: Ligand binding to plate bound mCD1d with and without UV activation, ELISA using mAb L363; set-up: species or system murine; settings: 3 days in PBS+0.05% Triton X-100 at 25° C.
T1 construct: recombinant soluble murine CD1d (mCD1d) was diluted to 400 μg/ml in PBS pH 7.2
T1 sequence (P11609 22-305 limits assumed): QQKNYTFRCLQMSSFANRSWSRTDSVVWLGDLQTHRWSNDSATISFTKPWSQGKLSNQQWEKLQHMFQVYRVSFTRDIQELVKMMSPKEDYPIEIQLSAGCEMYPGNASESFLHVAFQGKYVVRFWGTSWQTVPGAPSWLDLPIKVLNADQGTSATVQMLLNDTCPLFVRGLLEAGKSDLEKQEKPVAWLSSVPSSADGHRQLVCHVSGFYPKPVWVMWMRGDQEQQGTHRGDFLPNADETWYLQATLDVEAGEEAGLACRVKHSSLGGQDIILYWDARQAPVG
T1 sequence (P01887 21-119 partner): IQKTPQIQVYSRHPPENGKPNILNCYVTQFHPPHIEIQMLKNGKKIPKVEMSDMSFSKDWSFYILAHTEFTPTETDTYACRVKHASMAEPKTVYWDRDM
Description: (§1) The ligand binding affinity of plate bound mCD1d was measured by ELISA using mAb L363 to detect murine CD1d/αGalCer complexes. ELISA plates were coated with mCD1d (10 μg/ml, 30 μl/well) overnight at 4° C. in PBS pH 8.2. Supernatant was then removed along with any unbound protein. Glycolipids (5 μM, 30 μl/well) were loaded and allowed to incubate overnight at 25° C. Supernatant was again removed and the complexes were washed three times with PBS to remove any unbound glycolipid. For those complexes that underwent UV activation, UV crosslinking was performed in solution (30 μl/well PBS) and at a fixed wavelength of 365 nm from a UV lamp (RAD-FREE long wave UV lamp, Schleicher & Schuell). The UV lamp was placed one inch from the sample and the sample was allowed to sit on ice for 1 hr.

[1] = biological target: T2, soluble recombinant mCD1d (Mus musculus, UniProt P11609); assay: Direct comparison of DB12-8 and 7DW8-5 complexes with soluble recombinant mCD1d, L363 ELISA; type: binding, murine
T2 construct: A soluble recombinant mCD1d protein (10 μg/ml) was loaded with glycolipids
T2 sequence (P11609 22-305 limits assumed): T1 sequence (P11609 22-305 limits assumed)
T2 sequence (P01887 21-119 partner): T1 sequence (P01887 21-119 partner)
Description: as §1
(§2) The ligand binding affinity of plate bound mCD1d was detected by iNKT DN3A4-1.2 hybridoma stimulation assay. mCD1d (10 μg/ml) was loaded with glycolipids (5 μM) overnight at 25° C. ELISA plates were coated with mCD1d:GC complexes (2.5 μg/ml, 30 μl/well) for 12-18 hours at 4° C. in PBS pH 8.2. Supernatant was then removed and the complexes were washed three times with PBS to remove any unbound glycolipid and protein. For those complexes that underwent UV activation, UV crosslinking was performed in solution (30 μl/well PBS) and at a fixed wavelength of 365 nm from a UV lamp (RAD-FREE long wave UV lamp, Schleicher & Schuell). The UV lamp was placed one inch from the sample and the sample was allowed to sit on ice for 1 hr. Supernatant was then removed and the complexes were washed three times with PBS to remove any unbound glycolipid and protein.
A soluble recombinant mCD1d protein (10 μg/ml) was loaded with glycolipids (5 μM) overnight at 25° C. in PBS pH8.2 with 0.05% tyloxapol. The mCD1d:GC complexes (10 μg/ml, 30 μl/well) were coated onto the high binding ELISA plates, overnight at 4° C. UV exposure and incubation to allow dissociation over 3 days was performed as described in Examples 6 and 7.

[2] = system: iNKT hybridoma DN3A4-1.2 with plate bound mCD1d; assay: Plate bound mCD1d:glycolipid complexes with and without UV activation, iNKT DN3A4-1.2 hybridoma stimulation assay (IL-2 ELISA); type: cell-based, murine; settings: after 3 days dissociation; non-crosslinked mCD1d complexes (UV state not stated for 7DW8-5)
Description: as §2

mCD1d.CEA fusion protein = assay: Direct comparison of DB12-8 and 7DW8-5 complexes with mCD1d.CEA fusion protein, L363 ELISA; type: binding, murine
Description: as §1, §2
mCD1d.CEA (10 μg/ml), a recombinant mCD1d protein genetically fused with a single chain Fv antibody fragment specific for the tumor associated antigen CEA, was loaded with glycolipids (5 μM) overnight at 25° C. in PBS pH8.2 with 0.05% tyloxapol. The mCD1d.CEA:GC complexes (10 μg/ml, 30 μl/well) were coated onto wells of high binding ELISA 96 well plates overnight at 4° C. UV exposure and incubation to allow dissociation over 3 days were performed as described in Examples 6 and 7.
A scale up of the complex formation in solution was performed using a 10-fold increased concentration of protein and glycolipid and the results are shown in FIG. 9C-9D. mCD1d.CEA (100 μg/ml) was loaded with DB12-8 (50 μM respectively) overnight at 25° C. in PBS pH8.2 with 0.05% tyloxapol. DB12-8:mCD1d.CEA complexes were diluted down to 10 μg/ml and were coated onto the high binding ELISA plates (30 μl/well), overnight at 4° C. UV exposure and incubation to allow dissociation over 3 days were performed as described in Examples 6 and 7.

dissociation of CD1d:glycolipid complex after 3 days (L363 ELISA) (plate bound mCD1d; UV irradiated 365 nm 1 hr)	dissociation of CD1d:glycolipid complex after 3 days (L363 ELISA) (plate bound mCD1d; not UV irradiated)	dissociation after 3 days (L363 ELISA signal) ([1]; UV exposure at 365 nm)	affinity to CD1d, complex detected by L363 ELISA ([1]; mCD1d 10 μg/ml, glycolipid 5 μM)	dissociation after 3 days (L363 ELISA signal) ([1]; non UV-crosslinked state)	Compound	iNKT cell response to stimulation with free αGalCer (iNKT cells)	iNKT stimulation post-dissociation (IL-2 ELISA) [2]	dissociation after 3 days (L363 ELISA signal) (mCD1d.CEA fusion protein; UV exposure at 365 nm)	affinity to CD1d, complex detected by L363 ELISA (mCD1d.CEA fusion protein; mCD1d.CEA 10 μg/ml, glycolipid 5 μM)	dissociation after 3 days (L363 ELISA signal) (mCD1d.CEA fusion protein; non UV-crosslinked state)
–	–	–	–	–	CCCCCCCCCCCCCCCCCCCCCCCCCC(=O)N[C@@H](CO[C@H]1O[C@H](CO)[C@H](O)[C@H](O)[C@H]1O)[C@H](O)[C@H](O)CCCCCCCCCCCCCC [αGalCer, α-galactosylceramide]	results in iNKT cell anergy	–	–	–	–
dissociated after 3 days	dissociated after 3 days	–	–	–	CCCCCCCCCCCCCCCCCCCCCCCCCC(=O)N[C@@H](CO[C@H]1O[C@H](CO)[C@H](O)[C@H](O)[C@H]1O)[C@H](O)[C@H](O)CCCCCCCCCCCCCC [KRN7000, (2S,3S,4R)-1-O-(α-D-galactopyranosyl)-N-hexacosanoyl-2-amino-1,3,4-octadecanetriol, reference compound]	–	–	–	–	–
dissociated after 3 days	dissociated after 3 days	almost complete loss of signal	showed affinity to CD1d	almost complete loss of signal	CCCCCCCCCCCCCC[C@@H](O)[C@@H](O)[C@H](CO[C@H]1O[C@H](CO)[C@H](O)[C@H](O)[C@H]1O)NC(=O)CCCCCCCCCCc1ccc(F)cc1 [Compound 7DW8-5, reference compound]	–	did not stimulate iNKT post-dissociation	almost complete loss of signal	showed affinity to CD1d	almost complete loss of signal
